Laboratory results published in ChEMBL document CHEMBL1201862, “PubChem BioAssay data set” (2004).
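Following 48 hours of exposure in 96-well plates, responses at five concentrations were used to interpolate endpoints linearly. At the GI50, growth is halved.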 The source made the active and inactive calls. Cut-off read from the data, not from the text of the source: active = GI50 up to about 1.1 µM and inactive = higher.

What was measured:
Experiment in all cases: growth of human tumour cells (NCI), 48 h
[1] = system: 786-0
[2] = system: A498
[3] = system: A549
[4] = system: ACHN
[5] = system: BT-549
[6] = system: CAKI-1
[7] = system: CCRF-CEM
[8] = system: COLO 205
[9] = system: DU-145
[10] = system: EKVX
[11] = system: HCC 2998
[12] = system: HCT-116
[13] = system: HCT-15
[14] = system: HL-60
[15] = system: HOP-62
[16] = system: HOP-92
[17] = system: HT-29
[18] = system: Hs-578T
[19] = system: IGROV-1
[20] = system: K562
[21] = system: KM12
[22] = system: LOX IMVI
[23] = system: M14
[24] = system: MCF7
[25] = system: MDA-MB-435
[26] = system: MDA-N
[27] = system: MOLT-4
[28] = system: Malme-3M
[29] = system: NCI-H226
[30] = system: NCI-H23
[31] = system: NCI-H460
[32] = system: NCI-H522
[33] = system: NCI/ADR-RES
[34] = system: OVCAR-3
[35] = system: OVCAR-4
[36] = system: OVCAR-5
[37] = system: OVCAR-8
[38] = system: PC-3
[39] = system: RPMI-8226
[40] = system: RXF 393
[41] = system: SF-268
[42] = system: SF-295
[43] = system: SF-539
[44] = system: SK-MEL-28
[45] = system: SK-MEL-2
[46] = system: SK-MEL-5
[47] = system: SK-OV-3
[48] = system: SN12C
[49] = system: SNB-19
[50] = system: SNB-75
[51] = system: SR
[52] = system: SW-620
[53] = system: T47D
[54] = system: TK-10
[55] = system: U-251
[56] = system: UACC-62
[57] = system: UO-31

With `O=C(N/N=C/C=C/c1ccc([N+](=O)[O-])o1)c1ccc(C(=O)N/N=C/C=C/c2ccc([N+](=O)[O-])o2)cc1` the GI50 [1] was 20.1 µM (inactive), the GI50 [2] was > 100 µM (inactive) and the GI50 [3] was > 100 µM (inactive). The GI50 [4] was 32.6 µM (inactive), the GI50 [5] was > 100 µM (inactive) and the GI50 [6] was 38.6 µM (inactive). For the same compound, the GI50 [7] was 1.93 µM (inactive), the GI50 [8] was 36 µM (inactive) and the GI50 [9] was > 47 µM (inactive). For the same compound, the GI50 [10] was > 100 µM (inactive), the GI50 [11] was 12.9 µM (inactive) and the GI50 [12] was 12.7 µM (inactive). The GI50 [13] was 37.4 µM, the GI50 [14] was 19.8 µM (inactive) and the GI50 [15] was 46.7 µM (inactive). The GI50 [16] was > 62.8 µM (inactive), the GI50 [17] was 72.9 µM (inactive) and the GI50 [18] was > 100 µM (inactive). For the same compound, the GI50 [19] was 46.8 µM (inactive), the GI50 [20] was 33.1 µM (inactive) and the GI50 [21] was > 100 µM (inactive). The GI50 [22] was 28.1 µM (inactive), the GI50 [23] was 14.8 µM (inactive) and the GI50 [24] was 34.4 µM (inactive). For the same compound, the GI50 [25] was 37.2 µM (inactive), the GI50 [26] was 29.5 µM (inactive) and the GI50 [27] was 5.42 µM (inactive). For the same compound, the GI50 [28] was 12.7 µM (inactive), the GI50 [29] was > 100 µM (inactive) and the GI50 [30] was 49.8 µM (inactive). The GI50 [31] was > 40.8 µM (inactive), the GI50 [32] was 24.3 µM (inactive) and the GI50 [33] was 36.7 µM (inactive). The GI50 [34] was 31.7 µM (inactive), the GI50 [35] was > 72.3 µM (inactive) and the GI50 [36] was > 100 µM (inactive). For the same compound, the GI50 [37] was 13.2 µM (inactive), the GI50 [38] was > 30.5 µM (inactive) and the GI50 [39] was 7.62 µM (inactive). The GI50 [40] was 25.9 µM (inactive), the GI50 [41] was 15.8 µM (inactive) and the GI50 [42] was > 85.5 µM (inactive). For the same compound, the GI50 [43] was 6.18 µM (inactive), the GI50 [44] was 57 µM (inactive) and the GI50 [45] was > 69.2 µM (inactive). The GI50 [46] was 22.4 µM (inactive), the GI50 [47] was > 100 µM (inactive) and the GI50 [48] was > 37.9 µM (inactive). The GI50 [49] was 43.3 µM (inactive), the GI50 [50] was > 100 µM (inactive) and the GI50 [51] was 17.3 µM (inactive). The GI50 [52] was 19.1 µM (inactive), the GI50 [53] was > 40.1 µM (inactive) and the GI50 [54] was 31.8 µM (inactive). For the same compound, the GI50 [55] was 17.3 µM (inactive), the GI50 [56] was > 86.3 µM (inactive) and the GI50 [57] was > 67.6 µM (inactive).
